Reference: ChEMBL document CHEMBL2434861, “Novel promising linezolid analogues: rational design, synthesis and biological evaluation” (2013)
Converted amounts (≈) assume the structure as drawn.

Assays:
Staphylococcus aureus [1] = assay: Antimicrobial activity against methicillin-susceptible Staphylococcus aureus ATCC 29213 after 16 to 20 hrs by microdilution method; type: functional
Staphylococcus aureus [2] = assay: Antimicrobial activity against methicillin-resistant Staphylococcus aureus ATCC 43300 after 16 to 20 hrs by microdilution method; type: functional

SMILES	MIC (Staphylococcus aureus [1]) [µg/mL]	MIC (Staphylococcus aureus [2]) [µg/mL]
O=C(NC[C@H]1CN(c2ccc(N3CCOCC3)c(F)c2)C(=O)O1)Nc1ccccc1	> 100	–
COc1ccc(NC(=O)NC[C@H]2CN(c3ccc(N4CCOCC4)c(F)c3)C(=O)O2)cc1	> 100	–
O=C(NC[C@H]1CN(c2ccc(N3CCOCC3)c(F)c2)C(=O)O1)Nc1ccc([N+](=O)[O-])cc1	> 100	–
COc1ccc(NC(=S)NC[C@H]2CN(c3ccc(N4CCOCC4)c(F)c3)C(=O)O2)cc1	> 100	–
O=C1O[C@@H](CNC(=S)Nc2ccccc2)CN1c1ccc(N2CCOCC2)c(F)c1	10 (≈ 23.2 µM)	–
O=C1O[C@@H](CNC(=S)Nc2ccc([N+](=O)[O-])cc2)CN1c1ccc(N2CCOCC2)c(F)c1	2 (≈ 4.21 µM)	1 (≈ 2.1 µM)
CC(=O)NC[C@H]1CN(c2ccc(N3CCOCC3)c(F)c2)C(=O)O1 [LINEZOLID]	1 (≈ 2.96 µM)	1 (≈ 2.96 µM)
